Source: patent US7968518B2, “Use of modified cyclosporins for the treatment of HCV disorders” (Novartis AG, priority 2003, dated 2011)

Tests used:
[1] = system: HCV in PH5CH8 cells (non-neoplastic hepatocyte cell line); experiment: In vitro HCV infection experiment in PH5CH8 cells, real time RT-PCR; assay type: cell-based, Hepatitis C virus (HCV); conditions: PH5CH8 cells treated with HCV-positive plasma, continuous treatment; untreated cells about 10-fold increase
Description: (§1) Cell culture: Huh-7 and MH-14 cells, HCV replicon cells, are cultured in Dulbecco's modified Eagle's medium (DMEM) with 10% fetal bovine serum (FBS). PH5CH8 cells are cultured in a 1:1 mixture of DMEM and F12 medium supplemented with 100 ng/ml of epidermal growth factor, 10 μu/ml of insulin, 0.36 μg/ml of hydrocortisone, 5 μg/ml of transferrin, 5 μg/ml of linoleic acid, 20 ng/ml of selenium, 4 μg/ml of glucagon, 10 ng/ml of prolactin, 10 μg/ml of gentamicin, 200 μg/ml of kanamycin, and 2% FBS.
(§2) The forward and reverse primers used in this experiment are 5′-[…]-3′ and 5′-[…]-3′, respectively. The fluorogenic probe is 5′-[…]-3′. As an internal control, ribosomal RNA is also quantified using TaqMan Ribosomal RNA Control Reagents (Applied Biosystems).

[2] = system: HCV subgenomic replicon in MH-14 cells; experiment: Immunoblot analysis of HCV NS5A and NS5B proteins in MH-14 HCV replicon cells; assay type: cell-based, Hepatitis C virus (HCV); conditions: 7 days
Description: as §1
Immunoblot analysis: Immunoblot analysis is performed as described by K. Watashi et al., Virology 2001, 286, 391-402. The primary antibodies used in this experiment are anti-NS5A, anti-NS5B, and anti-β-actin (Sigma) antibodies.
The effect of various cyclosporins of the invention on the replication of the HCV genome using MH-14 cells, in which the HCV subgenomic replicon as shown in FIG. 1A is autonomously replicated.

[3] = system: HCV subgenomic replicon in MH-14 cells; experiment: Northern blot analysis of replicon RNA in MH-14 cells; assay type: cell-based, Hepatitis C virus (HCV); conditions: 1 μg/ml, 7 days
Description: as §1
Northern Blot Analysis: Nothern blot analysis is performed as described by H. Kishine et al., Biochem. Biophys. Res. Commun., 2002, 47, 119-125. The probe complementary to the NS5B sequence used in this experiment is described by H. Kishine, supra.
(§3) Replicon RNA is analyzed in MH-14 cells treated with or without a cyclosporin of the invention or IFNα for 7 days by northern blot analysis.

[4] = system: HCV subgenomic replicon in MH-14 cells; conditions: 7th day of treatment
Description: as §1, §2, §3

## [MeIle]^4-Ciclosporin
[1]
  increase of HCV RNA genome titer, 5th day vs 1st day post-inoculation: significant increase of the HCV RNA genome titer at these time points was not observed
[2]; 1 μg/ml
  amount of HCV NS5A and NS5B proteins by immunoblot analysis: undetectable
[3]
  amount of replicon RNA by northern blot: undetectable
[4]
  level of HCV RNA relative to the original: about 1/400

## IFNα
[1]
  increase of HCV RNA genome titer, 5th day vs 1st day post-inoculation: significant increase of the HCV RNA genome titer at these time points was not observed
[2]; 100 U/ml, positive control
  amount of HCV NS5A and NS5B proteins by immunoblot analysis: undetectable
